Reference: PubChem BioAssay AID1963422 (Molecular Pharmacology Branch, DTP, NCI, 2024)

Tested on: 463943-066-T-J2-PDC complex spheroid growth
Experiment: Anticancer human tumor 463943-066-T-J2-PDC patient-derived colon adenocarcinoma cell line growth inhibition [Asc]
Conditions: for IC50: curve of first compound; for viability, T/C: stronger effect = lower value
Method: Multicellular complex tumor spheroid response to apoptosis pathway targeting inhibitors Alrizomadlin, Pelcitoclax, and Dasminapant in combination with a variety of drugs and investigational agents in selected tumor cell lines
The MDM2 inhibitor alrizomadlin, the Bcl-2/Bcl-xL inhibitor pelcitoclax, and the IAPs inhibitor dasminapant were evaluated both individually and in combination with standard of care and investigational anticancer small molecules within a complex spheroid model of solid tumors. . Complex spheroids include a stromal component modeled by human endothelial cells (HUVEC) and fibroblasts modeled by human mesenchymal stem cells (MSCs). The concentration ranges selected for each drug and investigational agent were based upon clinically achievable concentrations if the clinical Cmax of the agent was known.
Compounds. The drugs and investigational agents: alrizomadlin (APG-115; NSC831270), pelcitoclax (APG-1252; NSC835773), dasminapant (APG-1387;NSC834197), TAK-243 (NSC785004), copanlisib (NSC809693), olaparib (NSC753686), talazoparib (NSC767125), cobimetinib (NSC 768068), eltanexor (KPT-8602, NSC 794443), abemaciclib (NSC 768073), sotorasib (NSC818433), adagrasib (NSC 831453), MRTX-1133 (NSC 836407), Iadademestat (ORY1001, NSC 806812), and RMC-4630 (NSC839698), were obtained from the NCI Developmental Therapeutics Program Chemical Repository. The FDA-approved anticancer drug set is available from the Developmental Therapeutics Program at https://dtp.cancer.gov/organization/dscb/obtaining/available plates.htm. […] The stock solutions were prepared in dimethyl sulfoxide (DMSO, Sigma-Aldrich, St. Louis, MO, cat. D2650) at 800-fold the tested concentration and stored at -70 degrees C prior to their use. All drugs and investigational agents were tested over a range starting from a high concentration at or near the clinical Cmax and decreasing in half-log increments. If the clinical Cmax for an agent had not been determined, the highest concentration tested was 10 microM.
The patient-derived cancer (PDC) cell lines include five colon adenocarcinomas: 186277-243-T-J2-PDC, 616215-338-R-J1-PDC, 439559-082-T-J2-PDC, 463943-066-T-J2-PDC, and 519858-162-T-J1-PDC; three pancreatic carcinomas: 323965-272-R-J2-PDC, 521955-158-R6-J3-PDC, and 521955-158-R2-J5-PDC; two uterine sarcomas: 327498-152-R-J2-PDC and 993429-296-R-J1-PDC; two rhabdomyosarcomas: 755483-174-R-J1-PDC and 772245-204-R-J1-PDC; two soft tissue sarcomas: 126254-015-R-J1-PDC and 494315-158-R-J1-PDC; two malignant fibrous histiocytomas: 317291-083-R-J1-PDC and 596521-263-R-J1-PDC; two breast carcinomas: 171881-019-R-J1-PDC and 885512-296-R-J2-PDC; and one ovarian carcinoma: 6556581-035-R-J-PDC were obtained from the NCI PDMR, (https://pdmr.cancer.gov). The established cell lines HSSY-2 synovial sarcoma (RRID:CVCL 8719), SYO-1 synovial sarcoma (RRID:CVCL_7146), MPNST malignant peripheral neural sheath tumor were obtained from the Sloan Kettering Institute. The following established cell lines were purchased from the American Type Culture Collection (ATCC, Manassas, VA), Sor the received from the NCI repository:, PANC-1 pancreatic carcinoma (CRL-1469, RRID:CVCL_0480), OVCAR-5 ovarian carcinoma (RRID:CVCL_1628), OVCAR-8 ovarian carcinoma (RRID:CVCL_1629), , MCF-7 breast carcinoma (CRL-12584, RRID:CVCL_0031), MDA-MB-231 breast carcinoma (CRL-12532, RRID:CVCL_0062), NCI-H1876 small cell lung carcinoma (CRL-5902, RRID:CVCL_1503), NCI-H510A small cell lung carcinoma (HTB-184, RRID:CVCL_1565), NCI-H1417 (CRL-5869, RRID:CVCL_1469), and NCI-H196 small cell lung carcinoma (CRL-5823, RRID:CVCL_1509). Dr. Peter Houghton (Greehey Children's Cancer Research Institute, University of Texas Health Science Center, San Antonio, TX) provided Rh-18 rhabdomyosarcoma (RRID:CVCL_1659). Pooled donor human umbilical vein endothelial cells (HUVEC, Lonza, cat. CC-2519) and human mesenchymal stem cells (hMSC, Lonza, cat. PT-2501) were purchased from Lonza (Walkersville, MD).
Cell Culture. […]

[1] = second compound 0.00949 µM, first compound 0.0316 µM
[2] = second compound 0.00949 µM, first compound 0.1 µM
[3] = second compound 0.03 µM, first compound 0.0316 µM
[4] = second compound 0.03 µM, first compound 0.1 µM
[5] = second compound 0.0949 µM, first compound 0.0316 µM
[6] = second compound 0.0949 µM, first compound 0.1 µM
[7] = second compound 0.3 µM, first compound 0.0316 µM
[8] = second compound 0.3 µM, first compound 0.1 µM
[9] = second compound 0.949 µM, first compound 0.0316 µM
[10] = second compound 0.949 µM, first compound 0.1 µM
[11] = second compound 3 µM, first compound 0.0316 µM
[12] = second compound 3 µM, first compound 0.1 µM
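Note: compound exposure lasted 7 days.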
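Throughout, for viability, T/C: 100% = DMSO vehicle control wells.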

Cn1ncnc1[C@H]1c2n[nH]c(=O)c3cc(F)cc(c23)N[C@@H]1c1ccc(F)cc1 + CCN1C(C(=O)NC23CCC(C(=O)O)(CC2)CC3)C(c2cccc(Cl)c2F)C2(C(=O)Nc3cc(Cl)ccc32)C12CCCCC2
IC50 (second compound 0.00949 µM): > 0.1 µM | IC50 (second compound 0.03 µM): > 0.1 µM | IC50 (second compound 0.0949 µM): > 0.1 µM | IC50 (second compound 0.3 µM): > 0.1 µM | IC50 (second compound 0.949 µM): > 0.1 µM | IC50 (second compound 3 µM): > 0.1 µM | viability, T/C (second compound 0.00949 µM, first compound 0.000316 µM): 102% | viability, T/C (second compound 0.00949 µM, first compound 0.001 µM): 96.2% | viability, T/C (second compound 0.00949 µM, first compound 0.00316 µM): 106% | viability, T/C (second compound 0.00949 µM, first compound 0.01 µM): 97.2% | viability, T/C [1]: 100% | viability, T/C [2]: 88.1% | viability, T/C (second compound 0.03 µM, first compound 0.000316 µM): 98.7% | viability, T/C (second compound 0.03 µM, first compound 0.001 µM): 98.6% | viability, T/C (second compound 0.03 µM, first compound 0.00316 µM): 95.7% | viability, T/C (second compound 0.03 µM, first compound 0.01 µM): 98.2% | viability, T/C [3]: 96.5% | viability, T/C [4]: 90.1% | viability, T/C (second compound 0.0949 µM, first compound 0.000316 µM): 101% | viability, T/C (second compound 0.0949 µM, first compound 0.001 µM): 89.1% | viability, T/C (second compound 0.0949 µM, first compound 0.00316 µM): 89.8% | viability, T/C (second compound 0.0949 µM, first compound 0.01 µM): 89.6% | viability, T/C [5]: 92.8% | viability, T/C [6]: 79.1% | viability, T/C (second compound 0.3 µM, first compound 0.000316 µM): 85.4% | viability, T/C (second compound 0.3 µM, first compound 0.001 µM): 85.3% | viability, T/C (second compound 0.3 µM, first compound 0.00316 µM): 85.7% | viability, T/C (second compound 0.3 µM, first compound 0.01 µM): 85.6% | viability, T/C [7]: 81.5% | viability, T/C [8]: 79% | viability, T/C (second compound 0.949 µM, first compound 0.000316 µM): 75.4% | viability, T/C (second compound 0.949 µM, first compound 0.001 µM): 76.1% | viability, T/C (second compound 0.949 µM, first compound 0.00316 µM): 72.5% | viability, T/C (second compound 0.949 µM, first compound 0.01 µM): 77.9% | viability, T/C [9]: 75.4% | viability, T/C [10]: 76.3% | viability, T/C (second compound 3 µM, first compound 0.000316 µM): 71.1% | viability, T/C (second compound 3 µM, first compound 0.001 µM): 70.2% | viability, T/C (second compound 3 µM, first compound 0.00316 µM): 75.3% | viability, T/C (second compound 3 µM, first compound 0.01 µM): 67.4% | viability, T/C [11]: 73.2% | viability, T/C [12]: 74%

O=C(c1cc(Cc2n[nH]c(=O)c3ccccc23)ccc1F)N1CCN(C(=O)C2CC2)CC1 + CCN1C(C(=O)NC23CCC(C(=O)O)(CC2)CC3)C(c2cccc(Cl)c2F)C2(C(=O)Nc3cc(Cl)ccc32)C12CCCCC2
IC50 (second compound 0.00949 µM): > 10 µM | IC50 (second compound 0.03 µM): > 10 µM | IC50 (second compound 0.0949 µM): > 10 µM | IC50 (second compound 0.3 µM): > 10 µM | IC50 (second compound 0.949 µM): > 10 µM | IC50 (second compound 3 µM): > 10 µM | viability, T/C [1]: 99.4% | viability, T/C [2]: 102% | viability, T/C (second compound 0.00949 µM, first compound 0.316 µM): 95.9% | viability, T/C (second compound 0.00949 µM, first compound 1 µM): 104% | viability, T/C (second compound 0.00949 µM, first compound 3.16 µM): 106% | viability, T/C (second compound 0.00949 µM, first compound 10 µM): 91.5% | viability, T/C [3]: 103% | viability, T/C [4]: 88.8% | viability, T/C (second compound 0.03 µM, first compound 0.316 µM): 94.6% | viability, T/C (second compound 0.03 µM, first compound 1 µM): 97.4% | viability, T/C (second compound 0.03 µM, first compound 3.16 µM): 96.9% | viability, T/C (second compound 0.03 µM, first compound 10 µM): 89.9% | viability, T/C [5]: 98.5% | viability, T/C [6]: 85.4% | viability, T/C (second compound 0.0949 µM, first compound 0.316 µM): 92.7% | viability, T/C (second compound 0.0949 µM, first compound 1 µM): 89.8% | viability, T/C (second compound 0.0949 µM, first compound 3.16 µM): 89.1% | viability, T/C (second compound 0.0949 µM, first compound 10 µM): 81.4% | viability, T/C [7]: 87.9% | viability, T/C [8]: 80.1% | viability, T/C (second compound 0.3 µM, first compound 0.316 µM): 83.4% | viability, T/C (second compound 0.3 µM, first compound 1 µM): 83.2% | viability, T/C (second compound 0.3 µM, first compound 3.16 µM): 76.4% | viability, T/C (second compound 0.3 µM, first compound 10 µM): 83.7% | viability, T/C [9]: 76.7% | viability, T/C [10]: 75.2% | viability, T/C (second compound 0.949 µM, first compound 0.316 µM): 74.3% | viability, T/C (second compound 0.949 µM, first compound 1 µM): 75.8% | viability, T/C (second compound 0.949 µM, first compound 3.16 µM): 75.5% | viability, T/C (second compound 0.949 µM, first compound 10 µM): 72% | viability, T/C [11]: 72.3% | viability, T/C [12]: 69.1% | viability, T/C (second compound 3 µM, first compound 0.316 µM): 70.9% | viability, T/C (second compound 3 µM, first compound 1 µM): 71.7% | viability, T/C (second compound 3 µM, first compound 3.16 µM): 70.6% | viability, T/C (second compound 3 µM, first compound 10 µM): 74.7%
